Measured values: patent publication EP3760291B1 (Stellenbosch University, priority 2019, dated 2021)

How the values were obtained:
[1] = Partitioning of resveratrol from biomass (grape pomace) in polymer-salt (PEG-salt) aqueous two-phase system; assay type: physicochemical
Description: The partitioning of the polyphenolic biomolecule can be quantified using parameters such as the partition coefficient (K) and the yield (Y). The partition coefficient reflects the extent of separation of the polyphenolic compound into the polymer phase. It is defined as the ratio of […]. Partition coefficients of more than 1 indicate a higher concentration of the specific molecule in the top phase. The partition coefficient (K) is calculated with equation 5 in which cT is the concentration of the molecule in the top phase and CB is the concentration of the molecule in the bottom phase. K = (CT)/(CB) [formula]
Polymer-salt aqueous two-phase systems with PEG of different molecular weights were prepared using PEG 400 (Mw =400 g/mol), PEG 1000 (Mw =1000 g/mol), PEG 4000 (Mw =4000 g/mol), PEG 8000 (Mw =8000 g/mol), and PEG 10000 (Mw =10 000 g/mol).
Two different ATP systems with different polymer and salt concentrations were investigated. System A contains 11 wt% PEG and 26 wt% ammonium sulphate and system B contains 13 wt% PEG and 13 wt% ammonium sulphate. Table 2. Quantities of materials used to extract resveratrol in systems A and B
20 ml pomace was added to a polymer-salt ATP systems comprising 20 ml water, 5 g PEG 8000 (11 wt%) and 2.5 g (7 wt%), 5 g (13 wt%), 8 g (19 wt%) and 12 g (26 wt%) ammonium salt, respectively.
20 ml pomace was added to a polymer-salt ATP systems comprising 11 wt% PEG 8000 and 26 wt% tartrate, citrate, sulphate and phosphate salt solutions (20 ml water), respectively. The partition coefficient and percentage extraction of resveratrol to the PEG top phase was determined for each of the different types of salts.
The bottom phase of the ATPS (consisting of the salt solution) therefore only contained trace amounts of resveratrol, with the remaining resveratrol still contained in the biomass. It was therefore assumed that within the bottom phases exiting the polymer-salt ATPS reactor, that the remaining resveratrol that was not extracted would be contained within the raw biomass of grape pomace and canes, and not in the salt solution.

[2] = assay type: physicochemical; conditions: pH 11.03
Protocol: Polymer-polymer aqueous two-phase systems were prepared using maltodextrin (mdx) in combination with PEG 4000 and PEG 8000. […] Demineralised water was added to yield a net weight of 200 g of solution.
Control/base solutions were prepared to be used as a baseline in the spectrophotometer by preparing the same solutions described above, but without resveratrol.
The aqueous two-phase systems were formed by continuously stirring the solutions using a magnetic stirrer for 30 minutes. […] In both the extraction solution and in the base solution two distinct phases were formed. 1 ml of the bottom phase of the extraction solution was separated from the system using a pipette tapped into an Erlenmeyer flask and 1 ml of the bottom phase of the blank solution was poured into a separate Erlenmeyer flask. The solutions were diluted by adding 50 ml of demineralised water to each.
Cuvettes containing the base solution were placed in the spectrophotometer and the system baselined. One of the cuvettes was then removed, rinsed with the diluted top phase of the extraction solution, and filled with the solution. […] The absorbance at the peak was then used to quantify the resveratrol content.
The resveratrol content of the top phase was quantified using the same methodology as for the bottom phase, using the top phase of the base solution to baseline the spectrophotometer. […]

[3] = water; cited from earlier work
[4] = Partitioning of resveratrol from biomass (grape pomace) in polymer-salt (PEG-salt) aqueous two-phase system; assay type: physicochemical; conditions: about 10% (w/w) PEG 8000 and about 15% (w/w) tartrate salt; raw biomass

## Oc1ccc(C=Cc2cc(O)cc(O)c2)cc1 [resveratrol]
[1]; 11 wt% PEG 8000, Ammonium sulphate, 25,5 wt% salt, to PEG top phase
  Partition Coefficient: 351
[1]; 11 wt% PEG 8000, Potassium hydrogen phosphate trihydrate, 25,5 wt% salt, to PEG top phase
  Partition Coefficient: 218
[1]; 11 wt% PEG 8000, Potassium sodium tartrate tetrahydrate, 25,5 wt% salt, to PEG top phase
  Partition Coefficient: 177
[1]; 11 wt% PEG 8000, Tri-sodium citrate dihydrate, 25,5 wt% salt, to PEG top phase
  Partition Coefficient: 79
[1]; PEG 8000 (11 wt%), 7 wt% ammonium sulphate, to PEG top phase
  Partition Coefficient: 78
[1]; PEG 8000 (11 wt%), 13 wt% ammonium sulphate, to PEG top phase
  Partition Coefficient: 242
[1]; PEG 8000 (11 wt%), 19 wt% ammonium sulphate, to PEG top phase
  Partition Coefficient: 334
[1]; PEG 8000 (11 wt%), 26 wt% ammonium sulphate, to PEG top phase
  Partition Coefficient: 351
[1]; System A: 11 wt% PEG, 26 wt% ammonium sulphate, PEG 400, to PEG top phase
  Partition Coefficient: 164
[1]; System A: 11 wt% PEG, 26 wt% ammonium sulphate, PEG 1000, to PEG top phase
  Partition Coefficient: 177
[1]; System A: 11 wt% PEG, 26 wt% ammonium sulphate, PEG 4000, to PEG top phase
  Partition Coefficient: 341
[1]; System A: 11 wt% PEG, 26 wt% ammonium sulphate, PEG 8000, to PEG top phase
  Partition Coefficient: 351
[1]; System A: 11 wt% PEG, 26 wt% ammonium sulphate, PEG 10000, to PEG top phase
  Partition Coefficient: 174
[1]; System B: 13 wt% PEG, 13 wt% ammonium sulphate, PEG 4000, to PEG top phase
  Partition Coefficient: 33
[1]; System B: 13 wt% PEG, 13 wt% ammonium sulphate, PEG 8000, to PEG top phase
  Partition Coefficient: 242
[1]; System B: 13 wt% PEG, 13 wt% ammonium sulphate, PEG 10000, to PEG top phase
  Partition Coefficient: 200
[2]
  partition coefficient of the system: 1.36
[3]
  aqueous solubility: 3 mg/100 ml
[4]
  resveratrol partitioning to the top phase: 99.6%
